Results taken from patent US11744830B2, “Ameliorative agent for cytokine release syndrome and so on” (TORII PHARMACEUTICAL CO., LTD., priority 2018, dated 2023).
Structures can show the parent of a compound that is named as a salt.

Experiments:
[1] = system: IL-6 production from PBMCs; test: LPS stimulation-induced IL-6 production in PBMCs; assay type: cell-based; conditions: Homo sapiens, PBMC, 72 h, LPS 3 ng/mL, 3 days
Method: Cryopreserved PBMCs were quickly thawed in a 37° C. thermostat and added to a tube containing medium. After centrifugation (at room temperature at 300 g for 10 minutes) to remove the supernatant, the cells were suspended again in the medium (10 mL), followed by counting the number of viable cells. After centrifugation (at room temperature at 300 g for 10 minutes) to remove the supernatant, the medium was added to suspend the cells at 1×10^6 cells/mL. This cell suspension was seeded in a 96-well plate in a volume of 100 μL/well (1×10^5 cells/well). […] The cells were cultured in a CO2 incubator for 3 days to collect the culture supernatants.
The collected culture supernatants were quantified for IL-6 using Human IL-6 DuoSet ELISA.

[2] = system: VEGF production from macrophages; test: LPS stimulation-induced VEGF production in macrophages; assay type: cell-based, human
Method: CD14^+ cells were cultured in 20 ng/mL M-CSF-containing RPMI medium at 37° C. for 5 days to induce differentiation into macrophages (during which the medium was replaced once every two days with fresh 20 ng/mL M-CSF-containing RPMI medium). […] The macrophages were then stimulated with LPS (final concentration: 100 ng/mL) or RPMI medium alone at 37° C. for 3 days, followed by collecting the culture supernatants. The collected culture supernatants were quantified for VEGF using Human VEGF DuoSet ELISA.

[3] = system: IL-6, IL-8 and other inflammatory cytokines; conditions: phase I study, LPS loading; cited from earlier work
[4] = system: acute myeloid leukemia (AML) cell lines; conditions: in vitro system; cited from earlier work

SMILES | IC50 [1] [nM] | IC50 ([2]; Homo sapiens, Macrophage, 72 h, read-out: IC50 value, VEGF) [nM] | effect on VEGF production from macrophages ([2]; Macrophages, LPS) | elevation of C-reactive protein (CRP) levels [3] | production of IL-6, IL-8 and other inflammatory cytokines [3] | autoproliferation of AML cell lines [4]
C[C@]12C=CC(=O)C=C1CC[C@@H]1[C@@H]2[C@@H](O)C[C@@]2(C)[C@H]1CC[C@]2(O)C(=O)CO [PSL, Prednisolone] | 176 |  |  |  |  | 
CCOC(=O)[C@H](Cc1ccccc1)NC(=O)c1cc(Cl)c(OCCN2CCN(C)CC2)c(Cl)c1O [JTE-607, (−)-ethyl N-{3,5-dichloro-2-hydroxy-4-[2-(4-methylpiperazin-1-yl)ethoxy]benzoyl}-L-phenylalaninate dihydrochloride] | 17.7 | 204 | tended to suppress VEGF production from macrophages, but its effect was marginal | suppress the elevation of C-reactive protein (CRP) levels in a dose-dependent manner | suppress the production of IL-6, IL-8 and other inflammatory cytokines | selectively suppress the autoproliferation
